Assay results from patent publication US6103728A, “Quinazolines” (Sugen, Inc., priority 1997, dated 2000).

Columns and labels:
Assay type in all cases: cell-based
IGF-1 Receptor = target: T1, IGF-1 Receptor (Homo sapiens, UniProt P08069); assay: Cellular IGF-1 Receptor ELISA (3T3/IGF-1R cells); details: 20 nM IGF-1, serum-free, 2 h drug incubation
T1 construct: expressed in transfected cells; host or cells: 3T3 cells (3T3/IGF-1R)

EGFR = target: T2, EGFR (Homo sapiens, UniProt P00533); assay: EGFR Whole Cell Kinase Assay (EGFR-3T3 assay, ELISA); details: NIH3T3 clone C7 over-expressing human EGF receptor; 25 nM EGF
T2 construct: expressed in transfected cells; host or cells: NIH3T3 clone C7 (EGFR/C7)
T2 sequence (P00533 25-1210): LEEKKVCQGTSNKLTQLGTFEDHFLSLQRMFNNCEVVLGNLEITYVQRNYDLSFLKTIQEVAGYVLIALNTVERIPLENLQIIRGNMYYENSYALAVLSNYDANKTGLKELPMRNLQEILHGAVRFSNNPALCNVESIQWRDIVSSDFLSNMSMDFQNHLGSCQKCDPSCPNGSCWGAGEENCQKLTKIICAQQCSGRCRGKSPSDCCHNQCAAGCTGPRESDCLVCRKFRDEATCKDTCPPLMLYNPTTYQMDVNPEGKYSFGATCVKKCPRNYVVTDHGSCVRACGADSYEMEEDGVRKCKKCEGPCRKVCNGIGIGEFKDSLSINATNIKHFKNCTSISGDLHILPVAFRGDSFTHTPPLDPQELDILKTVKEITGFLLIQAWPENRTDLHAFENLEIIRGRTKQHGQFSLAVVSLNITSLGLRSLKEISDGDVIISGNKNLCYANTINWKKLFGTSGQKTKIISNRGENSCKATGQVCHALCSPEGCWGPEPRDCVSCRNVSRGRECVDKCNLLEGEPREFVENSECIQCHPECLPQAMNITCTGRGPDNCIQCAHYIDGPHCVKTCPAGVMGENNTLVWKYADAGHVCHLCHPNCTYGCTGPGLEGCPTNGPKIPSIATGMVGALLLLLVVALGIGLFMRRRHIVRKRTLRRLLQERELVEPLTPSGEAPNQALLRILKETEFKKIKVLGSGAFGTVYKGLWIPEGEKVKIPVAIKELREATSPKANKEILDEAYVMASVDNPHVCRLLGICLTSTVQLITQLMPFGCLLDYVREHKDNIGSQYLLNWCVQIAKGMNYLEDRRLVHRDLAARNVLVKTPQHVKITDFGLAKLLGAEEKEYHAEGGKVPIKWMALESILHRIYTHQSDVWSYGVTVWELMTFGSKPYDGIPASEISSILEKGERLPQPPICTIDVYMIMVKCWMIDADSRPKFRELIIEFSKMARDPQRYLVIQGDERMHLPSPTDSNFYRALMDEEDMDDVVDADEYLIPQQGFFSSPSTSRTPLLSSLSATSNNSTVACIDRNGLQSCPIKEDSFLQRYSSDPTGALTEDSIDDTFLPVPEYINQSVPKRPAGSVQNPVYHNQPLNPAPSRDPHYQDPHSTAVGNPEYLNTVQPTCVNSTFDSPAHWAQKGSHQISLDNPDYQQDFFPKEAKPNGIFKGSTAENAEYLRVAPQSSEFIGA
Excerpt: (§1) The following examples illustrates the ability of the exemplary compounds to inhibit receptor tyrosine kinases, such as HER2 and/or EGFR. The following target cells were used for cellular kinase assays: NIH3T3 clone C7 (Honegger et al., supra) engineered to over-express human EGF receptor; NIH3T3 cells engineered to over-express a chimeric receptor containing the EGFR extracellular domain and the HER2 intracellular kinase domain; the human mammary carcinoma line BT474 (ATCC ATB2) expressing HER2; and the human glioblastoma line U1242 that expresses PDGFR-beta. Growth assays were carried out using human mammary epithelial SKBR3 (ATCC HTB30) cells (SKBR3 cells over-express HER2), SKOV3 (ATCC HTB77) human ovarian cancer cell line (SKOV3 cells also over-express HER2), A431 cells (A431 cells over-express EGFR) MCF7 human breast carcinoma cells, MCF7 cells overexpressing the HER2 kinase (MCF7-HER2), NIH3T3 cells, and NIH3T3 cells overexpressing the HER2 kinase (3T3-HER2.
EGFR Whole Cell Kinase Assay
EGFR kinase activity (EGFR-3T3 assay) in whole cells was measured as described below:
A. Coat ELISA plates (Corning, 96 well, Cat. #25805-96) with 05-101 antibody at 0.5 μg per well in PBS, 150 μl final volume/well, and store overnight at 4° C. Coated plates are good for up to 10 days when stored at 4° C. […]

PDGFR-beta = target: T3, PDGFR-beta (Homo sapiens, UniProt P09619); assay: PDGF-R Cellular Assay (ELISA); details: human glioblastoma line U1242; PDGF-BB 100 ng/ml
T3 construct: the human glioblastoma line U1242 that expresses PDGFR-beta; endogenous in cells; host or cells: U1242 (U1242 MG) human glioblastoma cells
T3 sequence (P09619 33-1106): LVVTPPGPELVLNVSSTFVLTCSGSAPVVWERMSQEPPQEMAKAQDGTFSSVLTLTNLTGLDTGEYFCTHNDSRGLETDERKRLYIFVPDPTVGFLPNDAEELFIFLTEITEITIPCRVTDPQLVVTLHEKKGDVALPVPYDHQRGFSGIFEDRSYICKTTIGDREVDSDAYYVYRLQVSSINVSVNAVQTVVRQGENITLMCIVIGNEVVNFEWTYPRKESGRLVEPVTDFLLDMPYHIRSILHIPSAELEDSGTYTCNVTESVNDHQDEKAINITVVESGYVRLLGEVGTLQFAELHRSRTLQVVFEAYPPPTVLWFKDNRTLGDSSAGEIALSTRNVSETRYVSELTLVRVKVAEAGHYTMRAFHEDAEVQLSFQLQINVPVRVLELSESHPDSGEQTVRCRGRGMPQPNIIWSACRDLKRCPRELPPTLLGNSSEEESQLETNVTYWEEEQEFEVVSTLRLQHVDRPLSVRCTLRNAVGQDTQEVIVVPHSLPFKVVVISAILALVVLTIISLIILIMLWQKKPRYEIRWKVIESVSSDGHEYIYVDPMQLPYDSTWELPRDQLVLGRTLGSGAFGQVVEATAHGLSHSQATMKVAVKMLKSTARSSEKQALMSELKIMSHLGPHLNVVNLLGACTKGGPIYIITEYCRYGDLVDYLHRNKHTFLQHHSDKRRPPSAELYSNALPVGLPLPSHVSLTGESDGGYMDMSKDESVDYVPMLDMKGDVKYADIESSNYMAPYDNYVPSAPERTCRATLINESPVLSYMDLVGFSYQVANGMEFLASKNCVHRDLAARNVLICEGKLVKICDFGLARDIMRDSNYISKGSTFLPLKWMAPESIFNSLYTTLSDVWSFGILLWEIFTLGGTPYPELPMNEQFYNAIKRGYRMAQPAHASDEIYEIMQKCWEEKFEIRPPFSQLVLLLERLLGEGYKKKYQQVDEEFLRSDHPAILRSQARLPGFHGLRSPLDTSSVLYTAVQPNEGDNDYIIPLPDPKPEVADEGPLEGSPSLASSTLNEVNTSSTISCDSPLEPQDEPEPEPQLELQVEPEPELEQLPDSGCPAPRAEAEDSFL
Excerpt: as §1, with “(3T3-HER2. […]” for “(3T3-HER2.”

HER2 = target: T4, HER2 (Homo sapiens, UniProt P04626); assay: HER2-ELISA, whole cell HER2 activity in BT474 cells; details: BT474 human breast tumor cells; serum-free; 2 h drug preincubation
T4 construct: a human breast tumor cell line which expresses high levels of HER2 kinase; endogenous in cells; host or cells: BT-474 human breast tumor cells
T4 sequence (P04626 23-1255): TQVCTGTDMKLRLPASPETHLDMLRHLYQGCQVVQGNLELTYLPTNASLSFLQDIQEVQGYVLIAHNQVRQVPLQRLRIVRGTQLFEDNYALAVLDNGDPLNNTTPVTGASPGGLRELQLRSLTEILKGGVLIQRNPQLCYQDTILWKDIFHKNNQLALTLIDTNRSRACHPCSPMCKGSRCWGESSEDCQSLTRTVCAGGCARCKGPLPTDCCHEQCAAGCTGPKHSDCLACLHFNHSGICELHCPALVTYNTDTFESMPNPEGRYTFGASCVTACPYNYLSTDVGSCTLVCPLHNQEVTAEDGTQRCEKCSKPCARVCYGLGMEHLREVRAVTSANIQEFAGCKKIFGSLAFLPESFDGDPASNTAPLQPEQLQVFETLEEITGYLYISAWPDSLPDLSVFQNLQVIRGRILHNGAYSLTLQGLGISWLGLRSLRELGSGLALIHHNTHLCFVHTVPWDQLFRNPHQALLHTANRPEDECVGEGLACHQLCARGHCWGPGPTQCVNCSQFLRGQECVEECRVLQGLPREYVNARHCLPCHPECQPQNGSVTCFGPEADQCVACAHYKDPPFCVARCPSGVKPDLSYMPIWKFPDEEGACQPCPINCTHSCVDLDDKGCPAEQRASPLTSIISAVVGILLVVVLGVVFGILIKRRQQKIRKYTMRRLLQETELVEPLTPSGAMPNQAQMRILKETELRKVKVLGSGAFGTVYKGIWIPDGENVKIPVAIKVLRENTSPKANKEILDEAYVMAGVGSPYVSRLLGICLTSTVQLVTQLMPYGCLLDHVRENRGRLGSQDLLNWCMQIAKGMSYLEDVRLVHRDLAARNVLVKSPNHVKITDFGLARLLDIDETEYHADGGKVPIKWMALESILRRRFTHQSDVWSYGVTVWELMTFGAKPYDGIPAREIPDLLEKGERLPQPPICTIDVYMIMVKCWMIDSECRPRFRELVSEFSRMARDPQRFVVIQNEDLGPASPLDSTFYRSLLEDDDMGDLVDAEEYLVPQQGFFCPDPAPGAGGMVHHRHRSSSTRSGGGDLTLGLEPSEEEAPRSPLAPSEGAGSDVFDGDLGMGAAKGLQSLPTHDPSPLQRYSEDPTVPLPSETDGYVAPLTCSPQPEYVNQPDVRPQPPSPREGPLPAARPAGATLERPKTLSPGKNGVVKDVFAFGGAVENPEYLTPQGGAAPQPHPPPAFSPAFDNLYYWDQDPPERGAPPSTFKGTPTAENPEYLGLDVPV
Excerpt: as §1
HER2-BT474 assays measuring whole cell HER2 activity was carried out as described below:
1) The cell line used in this assay is BT-474 (ATCC HBT20), a human breast tumor cell line which expresses high levels of HER2 kinase.
2) BT-474 is grown in an incubator with 5% CO2 at 37° C. The growth media is RPMI+10% FBS+GMS-G (Gibco supplement)+Glutamine.
3) A monoclonal anti-HER2 antibody is used in ELISA. […]

[1] = test system: chimeric receptor containing the EGFR extracellular domain and the HER2 intracellular kinase domain; assay: EGFR-HER2 chimeric receptor whole cell kinase assay in NIH3T3 cells (ELISA); details: NIH3T3 cells with EGFR/HER2 chimeric receptor; 100 nM EGF; 2 h drug incubation; read-out: ELISA DATA HER2 - (3T3)
Excerpt: as §1
EGFR-HER2 Chimeric Recetor
HER2 kinase activity (EGFR-3T3) in whole cells was measured as described below:
The materials and reagents are identical to these used in example 1, the EGFR whole cell kinase assay.
A. Coat ELISA plates (Corning, 96 well, Cat. #25805-96) with 05-101 antibody at 0.5 µg per well in PBS, 100 μl final volume/well, and store overnight at 4° C. […]

T1 sequence (P08069 31-1367): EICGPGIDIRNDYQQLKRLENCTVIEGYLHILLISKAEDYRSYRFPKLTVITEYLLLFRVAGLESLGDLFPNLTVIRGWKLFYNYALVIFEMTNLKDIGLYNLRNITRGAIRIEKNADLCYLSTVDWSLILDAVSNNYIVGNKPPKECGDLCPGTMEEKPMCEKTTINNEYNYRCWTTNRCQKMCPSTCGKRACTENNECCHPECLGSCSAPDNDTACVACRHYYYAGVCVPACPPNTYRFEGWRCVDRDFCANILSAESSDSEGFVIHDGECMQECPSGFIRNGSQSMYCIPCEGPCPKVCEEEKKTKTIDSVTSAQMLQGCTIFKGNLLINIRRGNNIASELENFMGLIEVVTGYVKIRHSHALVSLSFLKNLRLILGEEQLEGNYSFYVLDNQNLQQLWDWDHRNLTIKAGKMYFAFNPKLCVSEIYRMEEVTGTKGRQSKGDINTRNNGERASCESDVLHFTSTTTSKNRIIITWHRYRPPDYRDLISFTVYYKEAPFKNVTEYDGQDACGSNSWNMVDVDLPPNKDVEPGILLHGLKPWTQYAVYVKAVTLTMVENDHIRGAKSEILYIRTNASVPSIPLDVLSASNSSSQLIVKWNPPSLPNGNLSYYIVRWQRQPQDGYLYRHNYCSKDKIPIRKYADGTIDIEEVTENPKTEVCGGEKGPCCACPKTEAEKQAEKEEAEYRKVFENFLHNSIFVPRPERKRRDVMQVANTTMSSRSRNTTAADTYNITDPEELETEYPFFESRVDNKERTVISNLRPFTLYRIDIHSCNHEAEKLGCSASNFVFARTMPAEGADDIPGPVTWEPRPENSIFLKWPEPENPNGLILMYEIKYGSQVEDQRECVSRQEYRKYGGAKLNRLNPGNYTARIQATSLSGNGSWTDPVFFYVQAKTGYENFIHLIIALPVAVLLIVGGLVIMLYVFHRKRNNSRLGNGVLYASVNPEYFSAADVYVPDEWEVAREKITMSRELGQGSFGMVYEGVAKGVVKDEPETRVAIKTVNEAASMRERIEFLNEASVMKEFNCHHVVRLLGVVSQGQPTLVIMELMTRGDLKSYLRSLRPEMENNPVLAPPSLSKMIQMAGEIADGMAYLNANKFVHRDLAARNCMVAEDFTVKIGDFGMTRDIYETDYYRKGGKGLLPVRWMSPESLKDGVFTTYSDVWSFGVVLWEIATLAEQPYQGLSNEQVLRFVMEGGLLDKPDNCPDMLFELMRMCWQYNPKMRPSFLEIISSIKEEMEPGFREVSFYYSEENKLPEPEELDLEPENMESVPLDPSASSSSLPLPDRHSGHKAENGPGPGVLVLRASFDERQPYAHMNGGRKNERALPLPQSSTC

IC50 (IGF-1 Receptor): > 50 µM
IC50 (EGFR): > 100 µM
IC50 (PDGFR-beta): > 100 µM
IC50 (HER2): > 100 µM
IC50 [1]: > 50 µM
Structure (SMILES): COC(=O)C(c1cccc(Br)c1)c1ncnc2cc(OC)c(OC)cc12 (centres unmarked) [Compound D002]
